Earlier results as cited in US7402578B2, “Methods for inhibiting cognitive deterioration in adults with down's syndrome” (Corcept Therapeutics, Inc., priority 2001, dated 2008).

Experiments:
[1] = in one study (Kawai)
[2] = test system: cognitive function in DS children; settings: Lobaugh et al. 2001

fraction of the daily dose excreted in the urine [1] | SMILES | enhancement of cognitive function [2]
less than 0.5% | CC#C[C@]1(O)CC[C@H]2[C@@H]3CCC4=CC(=O)CCC4=C3[C@@H](c3ccc(N(C)C)cc3)C[C@@]21C [Mifepristone, 17-beta-hydroxy-11-beta-(4-dimethylaminophenyl)-17-alpha-(1-propynyl)-estra-4,9-dien-3-one] | –
– | NC(=O)CN1CCCC1=O [Piracetam] | failed to enhance cognitive function
